# In US20240252500A1, “Treatment of chronic pruritic dermatoses” (CymaBay Therapeutics, Inc., priority 2023, published 2024):
# Like-named read-outs stand apart in the source and are kept apart here.
# Columns and labels:
# human IL-31 [1] = test: Serum human IL-31 in PXB mice (humanized liver); assay type: in vivo, PXB mouse; conditions: 2 h after last dose, day 0 0.13 pg/mL
# From the text: The PXB mouse (PhoenixBio Co., Ltd., Higashi-Hiroshima, Japan) is a chimeric mouse with a humanized liver, produced by transplanting human hepatocytes into the albumin enhancer/promoter-urokinase-type plasminogen activator complementary DNA transgenic/SCID mouse. The mouse has its liver repopulated by human hepatocytes at a ratio of more than 70%, typically 85-90%, as assessed by measuring the ratio of human albumin to mouse albumin in the blood. The transplanted human hepatocytes express a variety of human messenger RNA (mRNA) and proteins, in a similar manner to those of the normal human liver. […] The study was conducted at PhoenixBio. Male PXB mice aged about 25 weeks, kept in single animal cages and fed CRF1 mouse chow supplemented with AS primate chow for vitamin C supplementation (both from Oriental Yeast Co., Ltd., Tokyo, Japan), were randomized into groups (10/group) based on mean values for body weight and blood human albumin concentration. […] Two hours after the last dose, each mouse was anesthetized with isoflurane, at least 400 μL blood was collected by cardiac puncture, and the mouse sacrificed by exsanguination. The blood samples were left to coagulate at room temperature for at least 5 minutes, then centrifuged at 13200×g for 3 minutes at 4° C. to obtain serum, which was analyzed for human IL-31.
# [2] = PBC patients, 12 months, cited from earlier work
# human IL-31 [3] = conditions: humanized liver murine model; cited from earlier work
# IL-31 [4] = conditions: NASH patients; cited from earlier work
# [5] = system: atopic dermatitis-associated pruritus; test: Oral treatment of pruritic atopic dermatitis; assay type: in vivo, human
# Experimental: (§1) Subjects are permitted their usual other medications. […] At each visit, the subjects are assessed for their disease symptoms and biomarkers, and assessed for pruritus. The subjects also maintain health diaries, which are reviewed at each visit.
# (§2) Adult subjects with pruritic atopic dermatitis are treated orally with doses of 5, 10, 25, 50, and 100 mg/day of mavodelpar. Subjects are permitted their usual other medications. The subjects are assessed before the study, and at intervals during the study, such as every 4 weeks during the study and 4 weeks after the last dose of the mavodelpar therapy, for safety and pharmacodynamic evaluations. At each visit, the subjects are assessed for their disease symptoms and biomarkers, and assessed for atopic dermatitis-associated pruritus. The subjects also maintain health diaries, which are reviewed at each visit.
# [6] = system: atopic dermatitis-associated pruritus; test: Topical ointment treatment of pruritic atopic dermatitis; assay type: in vivo, human
# Experimental: as §1
# as §2, with “topically” for “orally”, “an ointment containing 1, 2,” for “doses of”, “or 10%” for “10, 25, 50, and 100 mg/day”, “for” for “for atopic dermatitis-associated”
# [7] = biological target: T1, peroxisome proliferator-activated receptor-α (Homo sapiens, UniProt Q07869); conditions: Alzheimer's Drug Discovery Foundation Cognitive Vitality Report, November 2021; read-out: EC50 for PPARα; cited from earlier work
# T1 sequence (Q07869 1-468): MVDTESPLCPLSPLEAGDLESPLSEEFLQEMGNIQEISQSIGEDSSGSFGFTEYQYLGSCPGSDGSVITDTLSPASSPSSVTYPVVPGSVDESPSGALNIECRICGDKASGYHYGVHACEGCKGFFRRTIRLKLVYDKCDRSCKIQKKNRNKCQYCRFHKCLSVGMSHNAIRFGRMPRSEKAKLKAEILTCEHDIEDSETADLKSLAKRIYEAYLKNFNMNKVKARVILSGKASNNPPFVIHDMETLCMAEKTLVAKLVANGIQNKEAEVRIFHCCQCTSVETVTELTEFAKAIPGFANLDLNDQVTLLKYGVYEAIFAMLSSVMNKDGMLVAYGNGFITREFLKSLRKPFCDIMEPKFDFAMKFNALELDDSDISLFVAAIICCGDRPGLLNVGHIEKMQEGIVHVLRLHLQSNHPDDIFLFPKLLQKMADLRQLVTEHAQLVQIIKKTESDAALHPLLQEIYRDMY
# [8] = biological target: T2, peroxisome proliferator-activated receptor-γ (Homo sapiens, UniProt P37231); conditions: Alzheimer's Drug Discovery Foundation Cognitive Vitality Report, November 2021; read-out: EC50 for PPARγ; cited from earlier work
# T2 sequence (P37231 1-505): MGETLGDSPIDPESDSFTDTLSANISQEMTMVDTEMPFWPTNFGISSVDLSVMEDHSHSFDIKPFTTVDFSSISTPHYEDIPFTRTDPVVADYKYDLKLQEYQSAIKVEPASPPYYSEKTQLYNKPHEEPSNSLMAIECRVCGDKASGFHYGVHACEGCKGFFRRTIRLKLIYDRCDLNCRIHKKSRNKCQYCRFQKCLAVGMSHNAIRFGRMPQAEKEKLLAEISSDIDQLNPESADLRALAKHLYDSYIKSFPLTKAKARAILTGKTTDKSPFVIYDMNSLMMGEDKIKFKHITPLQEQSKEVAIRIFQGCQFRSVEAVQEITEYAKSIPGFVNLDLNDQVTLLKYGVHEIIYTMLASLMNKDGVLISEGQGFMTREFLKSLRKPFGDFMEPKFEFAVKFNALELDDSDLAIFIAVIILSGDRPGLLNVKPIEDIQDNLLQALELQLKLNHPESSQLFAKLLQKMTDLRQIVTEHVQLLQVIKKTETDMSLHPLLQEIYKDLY
# [9] = animal models and humans; cited from earlier work
# [10] = several animal models of type 2 diabetes; cited from earlier work
# [11] = early clinical studies; cited from earlier work
# [12] = biological target: T1, peroxisome proliferator-activated receptor-α; test: PPARα agonism / selectivity; assay type: biochemical
# CD4 T cells = test: IL-31 production by CD4 T cells under Th2-promoting conditions; assay type: cell-based, human; conditions: both donors, both promoters; p<0.0001, Mann-Whitney test
# Experimental: CD4 T cells were enriched from peripheral blood mononuclear cells collected from two normal healthy donors, using the EasySep™ Human CD4+ T Cell Isolation Kit ([…] Technologies). 100,000 CD4 T cells were seeded in a U-bottom 96-well-plate well, and cultured in Th2-promoting conditions promoted by IL-4 or IL-33. […] On day 5 of culture, the anti-CD3/CD28 beads were diluted by adding 150 μL TCM. From days 5 to 13, the cells were cultured in the presence of the same reagents as for days 1 to 4 plus 50 ng/mL IL-2; and the cell culture medium was renewed every 2-3 days by a change of 50% volume of the medium. On day 13 or day 14, the expanded T cells in an individual well were split to four to six wells of 96-well-plate wells; and 5 ng/mL phorbol myristate acetate and 500 ng/mL ionomycin were added for 3 days to re-activate the T cells. The IL-31 concentration in the culture medium of each well was determined using the V-PLEX Human IL-31 Kit (Meso Scale Diagnostics, LLC; Rockville, MD, USA).
# IL-31 [13] = test: Serum IL-31 in PBC subjects, phase 3 study (ENHANCE, NCT03602560); assay type: in vivo, human; conditions: before treatment
# From the text: The trial subjects in this phase 3 study were adult, male or female, with a diagnosis of PBC. Exclusion criteria included AST or ALT≥3×ULN, total bilirubin (TBIL)≥2×ULN, autoimmune hepatitis or a history of chronic viral hepatitis, PSC, the current use of fibrates or simvastatin, the use of colchicine, methotrexate, azathioprine, or systemic steroids in the previous two months, the use of an experimental treatment for PBC, and the use of an experimental or unapproved immunosuppressant. […] Serum IL-31 and its correlation with patient-reported pruritus numerical rating scale (NRS, 0-10) were assessed.
# [14] = Seladelpar oral studies in primary biliary cholangitis; assay type: in vivo, human
# [15] = Oral bioavailability of seladelpar; conditions: in vivo
smiles,measurement,setting,value
CC[C@H]1[C@@H](O)[C@@H]2[C@H](CC[C@]3(C)[C@@H]([C@H](C)CCC(=O)O)CC[C@@H]23)[C@@]2(C)CC[C@@H](O)C[C@@H]12 [obeticholic acid],serum human IL-31 concentration,human IL-31 [1]; gavage 10 mL/kg of 1 mg/mL once/day for 19 days,3.7 pg/mL
same,patients reporting severe pruritus,[2]; OCALIVA 10 mg arm,23%
same,patients reporting severe pruritus,[2]; OCALIVA titration arm,19%
same,IL-31 mRNA expression in human hepatocytes,human IL-31 [3],increased
O=C(O)c1ccnc(N2CC(O)(c3ccc(OCc4c(-c5c(Cl)cccc5Cl)noc4C4CC4)cc3Cl)C2)c1 [cilofexor],effect on IL-31,IL-31 [4],increased IL-31
"Cc1cc(OC/C=C(/c2ccc(F)cc2)c2ccc(C#CCN3CCOCC3)cc2)ccc1OCC(=O)O [mavodelpar, (4-{[(2E)-3-(4-fluorophenyl)-3-{4-[3-(morpholin-4-yl)prop-1-yn-1-yl]phenyl}prop-2-en-1-yl]oxy}-2-methylphenoxy)acetic acid]",atopic dermatitis-associated pruritus,"[5]; oral 5, 10, 25, 50 and 100 mg/day mavodelpar",improvement in their atopic dermatitis-associated pruritus
same,atopic dermatitis-associated pruritus,"[6]; ointment containing 1, 2, 5 or 10% mavodelpar",improvement in their atopic dermatitis-associated pruritus
same,EC50,[7],> 10 µM
same,EC50,[8],> 10 µM
same,high-density lipoprotein cholesterol,[9],significant increase in high-density lipoprotein cholesterol
same,low-density lipoprotein cholesterol and triglycerides,[9],lowering of low-density lipoprotein cholesterol and triglycerides
same,anti-diabetic effect,[10],anti-diabetic effect
same,tolerability,[11],well tolerated
"CCO[C@H](COc1ccc(C(F)(F)F)cc1)CSc1ccc(OCC(=O)O)c(C)c1 [seladelpar, [4-({(2R)-2-ethoxy-3-[4-(trifluoromethyl)phenoxy]propyl}sulfanyl)-2-methylphenoxy]acetic acid]",specificity for PPARδ compared with PPARα,[12],> 600 fold
same,IL-31 production vs DMSO control,CD4 T cells,reduced IL-31 production
same,serum human IL-31 concentration,human IL-31 [1]; gavage 10 mL/kg of 10 mg/mL once/day for 19 days,0.19 pg/mL
same,"mean serum IL-31, baseline",IL-31 [13]; 5 mg/day oral as L-lysine dihydrate salt,3.8 pg/mL
same,"mean serum IL-31, baseline",IL-31 [13]; 10 mg/day oral as L-lysine dihydrate salt,4.2 pg/mL
same,atopic dermatitis-associated pruritus,"[5]; oral 5, 10, 25 and 50 mg/day seladelpar",improvement in their atopic dermatitis-associated pruritus
same,atopic dermatitis-associated pruritus,"[6]; ointment containing 1, 2, 5 or 10% seladelpar",improvement in their atopic dermatitis-associated pruritus
same,efficacy in PBC,"[14]; oral 5, 10, 50 and 200 mg/day",effective in the treatment of PBC
same,effect on cholestatic pruritus (exacerbation),"[14]; oral 5, 10, 50 and 200 mg/day in PBC",not to exacerbate cholestatic pruritus
same,efficacy in cholestatic pruritus associated with PBC,[14]; oral 5 and 10 mg/day,effective in the treatment of cholestatic pruritus
same,oral bioavailability,[15],high
